Results: US6849607B2, “Galectin recognized photosensitizers for photodynamic therapy” (Health Research, Inc., priority 2001, dated 2005)
Several values for one entry are separate records, joined by “and”; a condition that tells them apart may be missing. Equal values may be shown once.

Columns and labels:
[1] = system: radiation induced fibrosarcoma (RIF) tumor cell; assay: In vitro photosensitizing activity in RIF tumor cells (MTT); assay type: cell-based; settings: 2.0 μM, light dose of 4 J/cm2
Procedure: Both cell lines are known to have some expression for Galectin-1 (Sacchettini, J. C., Baum, L. G. and Brewer, C. F., Multivalent Protein-carbohydrate Interactions. A New Paradiagm for Super Molecular Assembly and Signal Transduction, Biochemistry, 40:3009-3015, 2001). The Molt-4 cells were grown in RPMI 1640 5% FCS (Fetal calf serum) in 100% humidity with 5% CO2. Cells were transferred to phenol red free (PRF) RPMI 1640 media with 1% FCS and plated at 2.5×10^4 cells/well. After 3 hours incubation in the dark, the cells were washed once with PBS and re-suspended in prf RPMI 1640 with 1% FCS. These cells were then illuminated with a 1000W Quartz Halogen Lamp with IR and bandpass dichroic filters to allow light between 400 nm-700 nm, at a dose rate of 16 mW/cm^2 at 695 nm. The RIF tumor cells were grown in alpha-DMEM with 10% fetal calf serum, penicillin and streptomycin. Cells were maintained in 5% CO2, 95% air and 100% humidity. For determining the PDT efficacy, these cells were plated in 96-well plates and a density of 1×10^4 cells well in complete media. After overnight incubation to allow the cells to attach the photosensitizers 14 were individually added at variable concentrations. After a 3 hr incubation in the dark at 37° C., the cells were washed once with PBS, then irradiated with the same light source as above (Molt-4 procedure), and the optimal cell kill was obtained at a concentration of 1.0 μM. After PDT the cells were washed once and placed in complete media and incubated for 48 hrs. […] The 96-well plate was read on a microtiter plate reader (Miles Inc. Titertek Multiscan Plus MK II) at an absorbance of 560 nm. […]

[2] = system: RIF tumors; assay: In vivo photosensitizing efficacy (tumor re-growth assay) in mice bearing RIF tumors; set-up: species or system C3H/HEJ mice; settings: 5.0 μM/kg; for mice tumor free on day 90: light 24 h post-injection, 6 mice/group; for mice tumor free on day 90 / in vivo PDT efficacy (in words): no free lactose
Procedure: Both conjugated and non-conjugated photosensitizers (1-4) were evaluated for their in vivo tumor response in C3H mice implanted with RIF tumors. In brief, C3H/HEJ mice were injected intradermally with 2×10^5 RIF cells in 30 μl HBSS w/o Ca^+2 and magnesium, into the flank and allowed to grow until they were 4-5 mm in diameter. The day before tumors were treatment size, the mice were injected with 0-5 μlmoles/kg of compounds 1-4. At 24 hours post-injection the mice were anesthetized with Ketamine and Xylazine, and restrained on plastic holders, treated with laser light from an argon pumped dye laser at 700 nm for a total fluence of 135 J/cm^2 at a fluence rate of 75 mW/cm^2. The mice (6 mice/group) were checked daily, the tumors were measured using two orthogonal measurements L and W (perpendicular to L) and the volumes were calculated using the formula V=LxW ^2/2 and recorded. Mice were considered cured if there was no palpable tumor at 90 days post PDT treatment.

[3] = target: Gal-1 (Homo sapiens, UniProt P09382); assay: Gal-1 inhibition binding, indirect ELISA (Gal-1-HRP conjugate on asialofetuin-coated wells)
Gal-1, sequence (P09382 whole entry): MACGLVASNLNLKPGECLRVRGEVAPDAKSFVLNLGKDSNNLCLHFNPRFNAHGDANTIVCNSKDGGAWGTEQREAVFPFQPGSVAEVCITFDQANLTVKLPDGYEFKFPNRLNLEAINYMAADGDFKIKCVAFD
Procedure: Cell. Biochem., 43, 43-57, 1990) to eliminate the thiol requirement for retention of carbohydrate-binding activity. Coupling of alkylated galaptin to Horseradish peroxidase (HRP) was carried out by a two-step glutaraldehyde procedure as described by Engvall (Engvall E., Enzyme Immunoassay ELISA and EMIT, Methods in Enzymology, 70, 419-439, 1980). The galactin-peroxidase conjugate was prepared in 50% glycerol-1% BSA and stored at -20° C. until use. The binding of the Gal-1 to photosensitizers with and without the galactose moiety was measured by an indirect ELISA method as described by Chen et al. […] The microtiter wells (Dynatech Laboratories, Chantilly, Va.) were coated with 2 μg asial fetuin (Sigma) in 100 μl of 0.1M sodium carbonate, 0.2% NaN3, pH 9.6 at 37° C. for 3h. The plates were tightly covered with parafilm and stored at 4° C. for use within three weeks. The optimal dilution for Gal-1HRP conjugate was determined by checker-board titration. For studying the effect of saccharides and their conjugates, 60 μl aliquots of diluted Gal-1-HRP conjugate containing 1.4 μg of Gal-1 were mixed separately in duplicate with 60 μl dilute buffer as well as serially diluted test compounds and incubated for 1 h at 37° C. A 100 μl aliquot was transferred to the microtiter wells, which had been coated with […] Fetuin, blocked and washed. The plates were then incubated for 1 h at 37° C. followed by color development with ABTS (Kirkegaard & Perry lab. Gaithersburg, Md.) and reading at 405 nm on an ELISA reader.

increase in I50 inhibition binding affinity compared to the galactose conjugate 2 [3]	IC50 ([3]; ELISA, read-out: I50, inhibition of Gal-1 binding)	inhibition at 450 µM ([3]; at 450 μM)	inhibition of Gal-1 binding ([3]; at 450 μM)	Compound	cell kill [1]	in vivo PDT efficacy, lactose injected immediately following the drug ([2]; free lactose 100-fold excess)	in vivo PDT efficacy, lactose injected 1 hour prior to light treatment ([2]; lactose 23 hr post-injection of the conjugate)	mice tumor free on day 90 [2]	mice tumor free on day 90 ([2]; listed as 4)	in vivo PDT efficacy (in words) [2]	in vivo PDT efficacy with and without lactose administration [2]
40 fold	540 nM and 500 nM	29%		C=C(C=CCO[C@@H]1O[C@H](CO)[C@@H](O[C@@H]2O[C@H](CO)[C@H](O)[C@H](O)[C@H]2O)[C@H](O)[C@H]1O)CN1C(=O)c2c3nc(cc4[nH]c(cc5nc(cc6[nH]c2c(c6C)C1=O)C(CC)=C5C)c(CC)c4C)C(C)C3CCC(=O)OC (mixture of isomers) [4a, Lactose-Chlorin conjugate joined with diene linkage]	100%	significant decrease in PDT efficacy	quite effective	3/6	Three out of six	quite effective	
			29%	Mesopurpurin-18-N-methyl-(2′-butadiene)imide [1a]	approximately 40%					inactive in vivo	ineffective
